{"source": "patent US20210393553A1", "about": "“PHARMACEUTICAL COMBINATIONS FOR THE TREATMENT OF PAIN” (IMUNEKS FARMA ILAC SANAYI VE TICARET A.S., priority 2018, published 2021)", "key": {"[1]": {"system": "female Albino Wistar rats", "experiment": "Hot plate test (heat induced pain model)", "assay_type": "in vivo"}, "rats": {"system": "rats", "experiment": "Tail Flick test", "assay_type": "in vivo"}}, "note": "Several values for one entry are separate records, joined by “and”; a condition that tells them apart may be missing. Equal values may be shown once.", "data": [{"smiles": "CC(C(=O)O)c1ccc(-c2ccccc2)c(F)c1", "note": "(stereo not drawn) [FBP, Flurbiprofen]", "values": [{"measurement": "hot plate test latency", "setting": "[1]; 15 min after oral gavage, hot plate 52.5° C., group average of 7 rats, cut-off 20 seconds, doses per Table 2", "result": 4.87, "unit": "s"}, {"measurement": "hot plate test latency", "setting": "[1]; 30 min after oral gavage, hot plate 52.5° C., group average of 7 rats, cut-off 20 seconds, doses per Table 2", "result": 5.65, "unit": "s"}, {"measurement": "hot plate test latency", "setting": "[1]; 45 min after oral gavage, hot plate 52.5° C., group average of 7 rats, cut-off 20 seconds, doses per Table 2", "result": 5.15, "unit": "s"}, {"measurement": "hot plate test latency", "setting": "[1]; 60 min after oral gavage, hot plate 52.5° C., group average of 7 rats, cut-off 20 seconds, doses per Table 2", "result": 4.96, "unit": "s"}, {"measurement": "analgesic effect in the hot plate test, in words", "setting": "[1]; comparison between groups / versus placebo", "result": "lowest analgesic effect compared to all the other groups except the placebo group"}, {"measurement": "tail flick results (tail flicking reaction time)", "setting": "rats; 1 hour after oral administration by gavage, same dosages as hot plate study, average of 3 measurements", "result": 4.95, "unit": "s"}]}, {"smiles": "COc1cccc(C2(O)CCCCC2CN(C)C)c1", "note": "(stereo not drawn) [Tramadol]", "values": [{"measurement": "time of peak of activity in hot plate test", "setting": "[1]; rat, in vivo", "result": 30, "unit": "min"}, {"measurement": "hot plate test latency", "setting": "[1]; rat, in vivo, po", "result": "5.49 s and 6.90 s and 6.03 s and 6.19 s"}, {"measurement": "tail flick results (tail flicking reaction time)", "setting": "rats; rat, in vivo, po", "result": 5.81, "unit": "s"}]}]}
